According to ChEMBL document CHEMBL1201862, “PubChem BioAssay data set” (2004):
The source made the active and inactive calls.

Columns and labels:
[1] = molecular target: Induced myeloid leukemia cell differentiation protein Mcl-1 (Homo sapiens, UniProt Q07820); type: functional
Caspase-6 = molecular target: T1, Caspase-6 (Homo sapiens, UniProt P55212); assay: inhibition of CASP6 peptide cleavage – biochemical, VEID-R110 fluorescence, cherry-pick, dose response (AID 720632)
T1 sequence (P55212 whole entry): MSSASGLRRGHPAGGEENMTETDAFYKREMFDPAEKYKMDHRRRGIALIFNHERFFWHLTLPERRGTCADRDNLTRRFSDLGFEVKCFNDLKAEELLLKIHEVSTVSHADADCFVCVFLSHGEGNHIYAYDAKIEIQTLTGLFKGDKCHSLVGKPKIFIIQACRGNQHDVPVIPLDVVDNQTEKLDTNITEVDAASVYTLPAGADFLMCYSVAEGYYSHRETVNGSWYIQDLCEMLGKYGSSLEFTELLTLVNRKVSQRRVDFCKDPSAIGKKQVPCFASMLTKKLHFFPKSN

Vero = assay: viability of Vero cells under compound – cytotoxicity control for flavivirus capping enzyme inhibitors (AID 588742); type: functional; conditions: Chlorocebus sabaeus
[2] = molecular target: T2, Sentrin-specific protease 6 (Homo sapiens, UniProt Q9GZR1); type: functional;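 note: Luminescence-based dose-response confirmatory assay of SENP6 inhibition, following up an ultra-high-throughput screen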
T2 sequence (Q9GZR1 whole entry): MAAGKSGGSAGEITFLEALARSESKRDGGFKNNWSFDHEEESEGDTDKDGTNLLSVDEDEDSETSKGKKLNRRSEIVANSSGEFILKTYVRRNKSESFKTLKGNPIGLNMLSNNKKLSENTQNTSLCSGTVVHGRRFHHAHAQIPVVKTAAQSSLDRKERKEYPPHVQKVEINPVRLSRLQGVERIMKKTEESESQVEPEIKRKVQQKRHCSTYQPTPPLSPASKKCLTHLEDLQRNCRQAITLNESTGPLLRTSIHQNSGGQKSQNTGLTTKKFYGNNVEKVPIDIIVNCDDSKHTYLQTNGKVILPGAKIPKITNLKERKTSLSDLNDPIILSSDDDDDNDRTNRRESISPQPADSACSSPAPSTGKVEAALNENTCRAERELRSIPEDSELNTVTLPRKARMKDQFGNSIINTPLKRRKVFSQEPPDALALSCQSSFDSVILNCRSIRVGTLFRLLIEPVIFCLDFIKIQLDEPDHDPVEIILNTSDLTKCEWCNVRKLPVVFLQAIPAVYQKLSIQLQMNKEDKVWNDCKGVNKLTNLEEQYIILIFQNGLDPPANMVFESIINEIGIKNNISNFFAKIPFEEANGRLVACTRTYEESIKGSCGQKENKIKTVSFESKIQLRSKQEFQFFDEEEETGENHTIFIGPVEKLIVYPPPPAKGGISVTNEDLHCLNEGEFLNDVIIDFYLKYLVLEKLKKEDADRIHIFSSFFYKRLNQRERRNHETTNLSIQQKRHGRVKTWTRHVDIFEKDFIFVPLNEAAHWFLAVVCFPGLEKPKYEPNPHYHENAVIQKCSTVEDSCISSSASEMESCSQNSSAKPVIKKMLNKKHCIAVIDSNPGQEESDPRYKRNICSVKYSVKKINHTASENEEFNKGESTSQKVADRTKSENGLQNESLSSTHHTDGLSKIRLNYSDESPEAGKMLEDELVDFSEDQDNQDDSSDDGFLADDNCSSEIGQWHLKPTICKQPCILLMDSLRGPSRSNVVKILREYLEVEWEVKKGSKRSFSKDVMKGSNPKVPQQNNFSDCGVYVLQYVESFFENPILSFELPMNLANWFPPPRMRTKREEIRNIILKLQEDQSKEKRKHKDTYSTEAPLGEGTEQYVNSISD

[3] = molecular target: T3, Sentrin-specific protease 8 (Homo sapiens, UniProt Q96LD8); type: functional;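 note: luminescence read-out of SENP8 inhibition, dose-response confirmation following an ultra-high-throughput screen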
T3 sequence (Q96LD8 whole entry): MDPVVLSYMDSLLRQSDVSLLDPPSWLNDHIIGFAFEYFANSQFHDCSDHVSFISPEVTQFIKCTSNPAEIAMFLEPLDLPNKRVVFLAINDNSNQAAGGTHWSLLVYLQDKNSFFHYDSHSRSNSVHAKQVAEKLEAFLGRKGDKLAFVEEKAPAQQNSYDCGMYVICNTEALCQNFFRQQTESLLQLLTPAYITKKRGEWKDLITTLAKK

Cysteine protease ATG4B = molecular target: T4, Cysteine protease ATG4B (Homo sapiens, UniProt Q9Y4P1); type: functional;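 note: Fluorescence-based dose-response confirmation assay measuring inhibition of ATG4B activity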
T4 sequence (Q9Y4P1 whole entry): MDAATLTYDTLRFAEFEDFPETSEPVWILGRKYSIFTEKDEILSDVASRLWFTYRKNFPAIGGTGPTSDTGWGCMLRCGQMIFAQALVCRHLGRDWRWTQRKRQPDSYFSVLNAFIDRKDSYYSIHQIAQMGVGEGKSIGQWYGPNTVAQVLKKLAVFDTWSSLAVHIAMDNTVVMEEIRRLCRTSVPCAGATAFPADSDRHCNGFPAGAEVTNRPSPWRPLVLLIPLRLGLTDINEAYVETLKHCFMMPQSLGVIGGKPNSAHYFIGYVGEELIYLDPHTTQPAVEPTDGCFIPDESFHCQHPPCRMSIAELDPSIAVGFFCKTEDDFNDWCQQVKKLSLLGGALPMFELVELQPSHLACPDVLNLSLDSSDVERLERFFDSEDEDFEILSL

Sequence of Induced myeloid leukemia cell differentiation protein Mcl-1 (Q07820 whole entry): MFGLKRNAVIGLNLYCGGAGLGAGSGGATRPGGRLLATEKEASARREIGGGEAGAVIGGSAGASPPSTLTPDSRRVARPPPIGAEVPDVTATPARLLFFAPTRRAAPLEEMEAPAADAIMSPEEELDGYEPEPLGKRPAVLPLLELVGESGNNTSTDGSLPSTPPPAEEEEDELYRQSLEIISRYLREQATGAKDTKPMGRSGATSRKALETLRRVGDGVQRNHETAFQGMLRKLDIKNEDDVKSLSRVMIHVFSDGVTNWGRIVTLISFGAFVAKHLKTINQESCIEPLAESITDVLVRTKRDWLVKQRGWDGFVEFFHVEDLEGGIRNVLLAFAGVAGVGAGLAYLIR

Row | Structure (SMILES) | IC50 [1] | AC50 (Caspase-6) | CC50 (Vero) | IC50 [2] | IC50 [3] | IC50 (Cysteine protease ATG4B)
1 | COc1cc(-c2ccc(Nc3ccccc3C(=O)O)c(OC)c2)ccc1Nc1ccccc1C(=O)O | 1.52 µM (active) | 4.6 µM (active) |  |  |  | 
2 | COC(CNC(=O)c1ccc2c3c(onc13)-c1ccccc1C2=O)OC |  |  | 20.4 µM (active) |  |  | 
3 | COc1ccc(OC)c(Nc2cc3ccccc3c(O)n2)c1 |  | 2.44 µM (active) |  | < 1.55 µM (active) | 2.45 µM (active) | 
4 | O=C(O)c1ccc(NC2=C/C(=N/S(=O)(=O)c3ccccc3)c3ccccc3C2=O)cc1 | 1.65 µM (active) |  | 31.4 µM (active) | 0.743 µM (active) | 1.38 µM (active) | 10.1 µM (active)
5 | Nc1ccc2c(c1)C(=O)C(=O)c1ccccc1-2 |  |  |  |  |  | 1.56 µM (active)
